Data from the NIST ThermoML archive (doi:10.1016/j.jct.2012.08.010).

Assay: xn = mol fraction of the nth substance listed
Conditions: 101 kPa, Liquid, Vibrating tube method

C=C[Si]1(C)O[Si](C)(C=C)O[Si](C)(C=C)O[Si](C)(C=C)O1 (stereo not given) [2,4,6,8-tetramethyl-2,4,6,8-tetravinylcycloterasiloxane] + Cc1ccccc1C
mass density [kg/m3]
Conditions | 288.15 K | 298.15 K | 308.15 K | 318.15 K | 328.15 K
x1 = 0.0501 | 899.27 | 890.61 | 882.01 | 873.28 | 864.53
x1 = 0.1045 | 912.95 | 904.03 | 895.21 | 886.26 | 877.4
x1 = 0.1503 | 922.61 | 913.54 | 904.57 | 895.48 | 886.45
x1 = 0.2004 | 931.72 | 922.5 | 913.37 | 904.14 | 894.98
x1 = 0.2501 | 939.54 | 930.19 | 920.94 | 911.57 | 902.32
x1 = 0.3022 | 946.69 | 937.18 | 927.81 | 918.32 | 909.02
x1 = 0.3443 | 951.7 | 942.14 | 932.7 | 923.13 | 913.69
x1 = 0.3987 | 957.55 | 947.88 | 938.35 | 928.69 | 919.16
x1 = 0.4487 | 962.3 | 952.55 | 942.93 | 933.19 | 923.59
x1 = 0.499 | 966.62 | 956.77 | 947.08 | 937.26 | 927.63
x1 = 0.549 | 970.42 | 960.52 | 950.76 | 940.89 | 931.18
x1 = 0.598 | 973.72 | 963.78 | 954.02 | 944.1 | 934.32
x1 = 0.6483 | 976.93 | 966.95 | 957.08 | 947.12 | 937.26
x1 = 0.6945 | 979.61 | 969.55 | 959.65 | 949.64 | 939.74
x1 = 0.7483 | 982.42 | 972.33 | 962.38 | 952.33 | 942.34
x1 = 0.7987 | 984.81 | 974.7 | 964.71 | 954.64 | 944.57
x1 = 0.8489 | 987.06 | 976.91 | 966.88 | 956.77 | 946.68
x1 = 0.9426 | 990.76 | 980.56 | 970.47 | 960.3 | 950.08
x1 = 1 | 992.74 | 982.54 | 972.34 | 962.14 | 951.94

C=C[Si]1(C)O[Si](C)(C=C)O[Si](C)(C=C)O[Si](C)(C=C)O1 (stereo not given) [2,4,6,8-tetramethyl-2,4,6,8-tetravinylcycloterasiloxane] + CCc1ccccc1
mass density [kg/m3]
Conditions | 288.15 K | 298.15 K | 308.15 K | 318.15 K | 328.15 K
x1 = 0.0501 | 887.7 | 878.79 | 869.83 | 860.83 | 851.79
x1 = 0.1045 | 902.53 | 893.47 | 884.37 | 875.24 | 866.11
x1 = 0.1504 | 913.16 | 904 | 894.77 | 885.58 | 876.37
x1 = 0.2005 | 923.2 | 913.94 | 904.59 | 895.29 | 885.99
x1 = 0.2502 | 931.85 | 922.49 | 913.05 | 903.69 | 894.31
x1 = 0.3023 | 939.76 | 930.31 | 920.8 | 911.36 | 901.91
x1 = 0.3443 | 945.44 | 935.9 | 926.4 | 916.84 | 907.26
x1 = 0.3988 | 952.02 | 942.4 | 932.8 | 923.14 | 913.48
x1 = 0.4491 | 957.43 | 947.75 | 938.01 | 928.31 | 918.61
x1 = 0.499 | 962.24 | 952.49 | 942.68 | 932.88 | 923.08
x1 = 0.5497 | 966.67 | 956.86 | 946.99 | 937.14 | 927.3
x1 = 0.5979 | 970.47 | 960.6 | 950.7 | 940.8 | 930.9
x1 = 0.6498 | 974.27 | 964.35 | 954.39 | 944.46 | 934.51
x1 = 0.6946 | 977.23 | 967.27 | 957.29 | 947.3 | 937.32
x1 = 0.7486 | 980.54 | 970.52 | 960.48 | 950.44 | 940.38
x1 = 0.7994 | 983.4 | 973.34 | 963.28 | 953.21 | 943.13
x1 = 0.8489 | 985.97 | 975.86 | 965.78 | 955.67 | 945.56
x1 = 0.9467 | 990.55 | 980.33 | 970.21 | 960.03 | 949.84
x1 = 1 | 992.74 | 982.54 | 972.34 | 962.14 | 951.94

C=C[Si]1(C)O[Si](C)(C=C)O[Si](C)(C=C)O[Si](C)(C=C)O1 (stereo not given) [2,4,6,8-tetramethyl-2,4,6,8-tetravinylcycloterasiloxane] + Cc1ccc(C)cc1
mass density [kg/m3]
Conditions | 288.15 K | 298.15 K | 308.15 K | 318.15 K | 328.15 K
x1 = 0.0501 | 882.57 | 873.71 | 864.79 | 855.81 | 846.77
x1 = 0.1045 | 898.18 | 889.15 | 879.99 | 870.82 | 861.58
x1 = 0.1528 | 909.95 | 900.78 | 891.46 | 882.13 | 872.74
x1 = 0.2005 | 919.97 | 910.61 | 901.17 | 891.84 | 882.31
x1 = 0.25 | 929.05 | 919.68 | 910.08 | 900.53 | 890.92
x1 = 0.3017 | 937.34 | 927.86 | 918.16 | 908.52 | 898.83
x1 = 0.3444 | 943.41 | 933.87 | 924.09 | 914.37 | 904.6
x1 = 0.3985 | 950.18 | 940.53 | 930.74 | 920.97 | 911.16
x1 = 0.4489 | 955.85 | 946.14 | 936.28 | 926.45 | 916.57
x1 = 0.4989 | 960.92 | 951.15 | 941.23 | 931.34 | 921.41
x1 = 0.5495 | 965.55 | 955.72 | 945.76 | 935.82 | 925.84
x1 = 0.5985 | 969.61 | 959.72 | 949.73 | 939.75 | 929.74
x1 = 0.649 | 973.48 | 963.54 | 953.51 | 943.48 | 933.43
x1 = 0.6941 | 976.62 | 966.59 | 956.55 | 946.5 | 936.42
x1 = 0.7484 | 980.08 | 970.08 | 959.96 | 949.86 | 939.75
x1 = 0.7992 | 983.04 | 972.97 | 962.87 | 952.74 | 942.62
x1 = 0.8375 | 985.13 | 975.04 | 964.91 | 954.76 | 944.62
x1 = 0.9462 | 990.42 | 980.26 | 970.11 | 959.92 | 949.73
x1 = 1 | 992.74 | 982.54 | 972.34 | 962.14 | 951.94
